Experimental data reported in ChEMBL document CHEMBL1201862, “PubChem BioAssay data set” (2004).
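All cell lines were grown in 96-well plates and treated with compound for 48 hours. Here, GI50 denotes the concentration required for 50% inhibition of growth.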 Calls of active or inactive are those of the source. Cut-off read from the data, not from the text of the source: active = GI50 up to about 1.1 µM and inactive = higher.

Legend:
Experiment in all cases: NCI-60 cell line screen, 48 h
A549 = test system: A549
CCRF-CEM = test system: CCRF-CEM
COLO 205 = test system: COLO 205
DU-145 = test system: DU-145
EKVX = test system: EKVX
HCT-15 = test system: HCT-15
HL-60 = test system: HL-60
HOP-62 = test system: HOP-62
M14 = test system: M14
MDA-MB-435 = test system: MDA-MB-435
NCI-H460 = test system: NCI-H460
OVCAR-4 = test system: OVCAR-4
SF-268 = test system: SF-268
SF-295 = test system: SF-295
SK-MEL-28 = test system: SK-MEL-28
SK-MEL-2 = test system: SK-MEL-2
SK-OV-3 = test system: SK-OV-3
SN12C = test system: SN12C
K562 = test system: K562
SNB-75 = test system: SNB-75

SMILES: O=[N+]([O-])c1ccc(C2c3c(O)nc(O)nc3Oc3nc(O)nc(O)c32)cc1
- GI50 (A549): > 100 µM (inactive)
- GI50 (CCRF-CEM): 13.8 µM (inactive)
- GI50 (COLO 205): > 100 µM (inactive)
- GI50 (DU-145): > 100 µM (inactive)
- GI50 (EKVX): > 100 µM (inactive)
- GI50 (HCT-15): > 100 µM
- GI50 (HL-60): 33.7 µM (inactive)
- GI50 (HOP-62): > 100 µM (inactive)
- GI50 (M14): > 100 µM (inactive)
- GI50 (MDA-MB-435): > 100 µM (inactive)
- GI50 (NCI-H460): > 100 µM (inactive)
- GI50 (OVCAR-4): > 100 µM (inactive)
- GI50 (SF-268): > 100 µM (inactive)
- GI50 (SF-295): > 100 µM (inactive)
- GI50 (SK-MEL-28): > 100 µM (inactive)
- GI50 (SK-MEL-2): > 100 µM (inactive)
- GI50 (SK-OV-3): > 100 µM (inactive)
- GI50 (SN12C): > 100 µM (inactive)

SMILES: O=C(O)C(=Cc1ccc(-c2ccc([N+](=O)[O-])cc2)o1)C(=O)O
- GI50 (A549): > 100 µM (inactive)
- GI50 (CCRF-CEM): > 100 µM (inactive)
- GI50 (COLO 205): > 100 µM (inactive)
- GI50 (DU-145): > 100 µM (inactive)
- GI50 (EKVX): > 100 µM (inactive)
- GI50 (HCT-15): > 100 µM
- GI50 (HL-60): > 10 µM (inactive)
- GI50 (HOP-62): < 0.01 µM (active)
- GI50 (K562): > 100 µM (inactive)
- GI50 (M14): > 100 µM (inactive)
- GI50 (MDA-MB-435): > 100 µM (inactive)
- GI50 (NCI-H460): > 100 µM (inactive)
- GI50 (SF-268): > 100 µM (inactive)
- GI50 (SF-295): > 100 µM (inactive)
- GI50 (SK-MEL-28): > 100 µM (inactive)
- GI50 (SK-MEL-2): > 100 µM (inactive)
- GI50 (SK-OV-3): > 100 µM (inactive)
- GI50 (SN12C): > 100 µM (inactive)
- GI50 (SNB-75): > 100 µM (inactive)

SMILES: CC(=O)NCCCCN(CCCNC(C)=O)C(=O)CNS(=O)(=O)c1cccc2c(N(C)C)cccc12
- GI50 (A549): > 100 µM (inactive)
- GI50 (CCRF-CEM): > 100 µM (inactive)
- GI50 (COLO 205): > 100 µM (inactive)
- GI50 (DU-145): > 100 µM (inactive)
- GI50 (EKVX): > 100 µM (inactive)
- GI50 (HCT-15): > 100 µM
- GI50 (HL-60): > 100 µM (inactive)
- GI50 (HOP-62): > 100 µM (inactive)
- GI50 (K562): > 100 µM (inactive)
- GI50 (M14): > 100 µM (inactive)
- GI50 (MDA-MB-435): > 100 µM (inactive)
- GI50 (NCI-H460): > 100 µM (inactive)
- GI50 (OVCAR-4): > 100 µM (inactive)
- GI50 (SF-268): > 100 µM (inactive)
- GI50 (SF-295): > 100 µM (inactive)
- GI50 (SK-MEL-28): > 100 µM (inactive)
- GI50 (SK-MEL-2): > 100 µM (inactive)
- GI50 (SK-OV-3): > 100 µM (inactive)
- GI50 (SN12C): > 100 µM (inactive)

SMILES: O=C1CN(c2ccc(Cl)cc2)C(=O)CN1CCN1CC(=O)N(c2ccc(Cl)cc2)CC1=O
- GI50 (A549): > 100 µM (inactive)
- GI50 (CCRF-CEM): > 100 µM (inactive)
- GI50 (COLO 205): > 100 µM (inactive)
- GI50 (DU-145): > 100 µM (inactive)
- GI50 (EKVX): > 100 µM (inactive)
- GI50 (HCT-15): > 100 µM
- GI50 (HL-60): > 100 µM (inactive)
- GI50 (HOP-62): > 100 µM (inactive)
- GI50 (M14): > 100 µM (inactive)
- GI50 (MDA-MB-435): > 100 µM (inactive)
- GI50 (NCI-H460): > 100 µM (inactive)
- GI50 (OVCAR-4): > 100 µM (inactive)
- GI50 (SF-268): > 100 µM (inactive)
- GI50 (SF-295): > 100 µM (inactive)
- GI50 (SK-MEL-28): > 100 µM (inactive)
- GI50 (SK-OV-3): > 100 µM (inactive)
- GI50 (SN12C): > 100 µM (inactive)
- GI50 (SNB-75): > 100 µM (inactive)

SMILES: CCOC(=O)c1ccc(OCc2nc3cc(C(F)(F)F)ccc3nc2-c2ccccc2)cc1
- GI50 (A549): > 100 µM (inactive)
- GI50 (CCRF-CEM): > 100 µM (inactive)
- GI50 (COLO 205): > 100 µM (inactive)
- GI50 (DU-145): > 100 µM (inactive)
- GI50 (EKVX): > 100 µM (inactive)
- GI50 (HCT-15): > 100 µM
- GI50 (HL-60): > 100 µM (inactive)
- GI50 (HOP-62): > 100 µM (inactive)
- GI50 (K562): 74.3 µM (inactive)
- GI50 (M14): > 100 µM (inactive)
- GI50 (MDA-MB-435): > 100 µM (inactive)
- GI50 (NCI-H460): 97.9 µM (inactive)
- GI50 (OVCAR-4): > 100 µM (inactive)
- GI50 (SF-268): > 100 µM (inactive)
- GI50 (SF-295): > 100 µM (inactive)
- GI50 (SK-MEL-28): > 100 µM (inactive)
- GI50 (SK-MEL-2): > 100 µM (inactive)
- GI50 (SN12C): > 100 µM (inactive)
- GI50 (SNB-75): > 100 µM (inactive)

SMILES: S=C(N/N=C(\C(=N/NC(=S)N1CCCCC1)c1ccccn1)c1ccccn1)N1CCCCC1
- GI50 (A549): 31.1 µM (inactive)
- GI50 (CCRF-CEM): 3.91 µM (inactive)
- GI50 (COLO 205): 6.38 µM (inactive)
- GI50 (DU-145): 14.9 µM (inactive)
- GI50 (EKVX): 80 µM (inactive)
- GI50 (HCT-15): 6.87 µM
- GI50 (HL-60): 1.12 µM (active)
- GI50 (HOP-62): 21.3 µM (inactive)
- GI50 (K562): 32.5 µM (inactive)
- GI50 (M14): 15.2 µM (inactive)
- GI50 (MDA-MB-435): 38.4 µM (inactive)
- GI50 (NCI-H460): 14 µM (inactive)
- GI50 (SF-268): 5.55 µM (inactive)
- GI50 (SF-295): 34.8 µM (inactive)
- GI50 (SK-MEL-28): 21.1 µM (inactive)
- GI50 (SK-OV-3): 29.1 µM (inactive)
- GI50 (SNB-75): 56.1 µM (inactive)

SMILES: Cc1ccc(C)n2c1nc1ccc3ccccc3c12
- GI50 (A549): > 100 µM (inactive)
- GI50 (CCRF-CEM): > 100 µM (inactive)
- GI50 (COLO 205): > 100 µM (inactive)
- GI50 (DU-145): > 100 µM (inactive)
- GI50 (EKVX): 27.9 µM (inactive)
- GI50 (HCT-15): > 100 µM
- GI50 (HL-60): > 100 µM (inactive)
- GI50 (HOP-62): > 100 µM (inactive)
- GI50 (K562): > 100 µM (inactive)
- GI50 (M14): > 100 µM (inactive)
- GI50 (MDA-MB-435): > 100 µM (inactive)
- GI50 (NCI-H460): > 100 µM (inactive)
- GI50 (SF-268): > 100 µM (inactive)
- GI50 (SF-295): > 100 µM (inactive)
- GI50 (SK-MEL-28): > 100 µM (inactive)
- GI50 (SK-OV-3): > 100 µM (inactive)
- GI50 (SN12C): > 100 µM (inactive)
- GI50 (SNB-75): 17.3 µM (inactive)

SMILES: Cn1cc(NC(=O)c2cc(NC(=O)c3cc(NC=O)cn3C)cn2C)cc1C(=O)NCCC(=N)N [STALLIMYCIN]
- GI50 (CCRF-CEM): > 100 µM (inactive)
- GI50 (COLO 205): > 100 µM (inactive)
- GI50 (DU-145): > 100 µM (inactive)
- GI50 (EKVX): > 100 µM (inactive)
- GI50 (HCT-15): > 100 µM
- GI50 (HL-60): > 100 µM (inactive)
- GI50 (HOP-62): > 100 µM (inactive)
- GI50 (K562): > 100 µM (inactive)
- GI50 (M14): > 100 µM (inactive)
- GI50 (MDA-MB-435): > 100 µM (inactive)
- GI50 (NCI-H460): > 100 µM (inactive)
- GI50 (SF-268): > 100 µM (inactive)
- GI50 (SF-295): > 100 µM (inactive)
- GI50 (SK-MEL-28): > 100 µM (inactive)
- GI50 (SK-MEL-2): > 100 µM (inactive)
- GI50 (SK-OV-3): > 100 µM (inactive)
- GI50 (SN12C): > 100 µM (inactive)
- GI50 (SNB-75): 22.8 µM (inactive)
